Experimental data: patent US6423855B1, “Cytoprotective compounds” (Virginia Commonwealth University, priority 1996, dated 2002)
pIC50: −log10 of the molar value. Values after ≈ are worked out from the molar mass of the structure shown.

Key:
ischemic bowel = assay: PLA2 release from ischemic bowel into media; conditions: 24 hrs of ischemia
Description: The addition of PX-13 reduced the enzyme release by more than 80% during 24 hrs of ischemia.

small bowel graft = assay: small bowel transplantation ischemia-reperfusion injury; assay type: in vivo, rat
Method: (§1) These drugs were also tested for their ability to enhance the preservation of tissues stored for subsequent transplantation. The small bowel was removed from rats, washed free of luminal contents and the tissue stored in University of Wisconsin (UW) preservative media ±40 uM PX-13 or mepacrine for 48 hrs. The graft was then transplanted into rats with or without intravenous (IV) infusion of 20 mg/kg PX-13 or mepacrine at the time of transplantation.

outer skin layers = assay: skin moisturization (20 megahertz ultrasound); assay type: in vivo, human; conditions: for Ultrasound Density Score: 30 minutes after application
Method: Two PX compounds PX-11 and PX-13 were evaluated in a cream formulation prepared under GMP. The chemicals were formulated into a bland cream and evaluated in the following human or mouse skin tests: (1) occluded patch test for irritation; (2) cell turnover rate; (3) transepidermal water loss; (4) skin moisturization; and (5) reduction in erythema after induced sunburn. The human skin tests were conducted on three volunteer female subjects, ages 29-32; a cream base with no added active was included as a control, while the untreated skin served as an additional basis for evaluation. Sunburn tests were performed on a total of 30 hairless albino mice. 4. Skin moisturization. Skin moisturization was measured using 20 megahertz ultrasound (the presence of moisture produces a density decrease in the outer skin layers), before and 30 minutes after product application to the forearm.

clone D6 (P. falciparum) = assay: 3H-hypoxanthine incorporation, P.falciparum clone D6; assay type: cell-based; conditions: Plasmodium falciparum, D6, read-out: IC50 growth
[1] = small bowel storage in perfusate solution, tissue weight; parameters: species or system rat; conditions: 24 and 48 hours in the perfusate solution
Method: These drugs were also tested for their ability to enhance the preservation of tissues stored for subsequent transplantation. […] The graft was then transplanted into rats with or without intravenous (IV) infusion of 20 mg/kg PX-13 or mepacrine at the time of transplantation.

clone W2 (P.falciparum) = assay: 3H-hypoxanthine incorporation, P.falciparum clone W2; assay type: cell-based; conditions: Plasmodium falciparum, W2; chloroquine resistant, mefloquine sensitive clone, RBC culture; read-out: IC50 growth
[2] = system: rat dorsal root ganglion cells; assay: cultured rat dorsal root ganglion cells exposed to snake venom PLA2; assay type: cell-based; conditions: 1-3 umols/min/mg for 60 min
[3] = system: human NP-homogenate induced paw edema; assay: nucleus pulposus (NP)-induced mouse paw edema; assay type: in vivo
Method: Human NP-homogenate was prepared according to the following protocol and stored frozen until use. Human vertebral discs were thawed and the tissue pieces were washed twice with isotonic saline. Tissue samples were homogenized in a minimum volume of isotonic saline using a Brinkman homogenizer. This homogenate was filtered through two layers of cheesecloth and the resultant filtrate was subjected to Dounce homogenization. This homogenate was again filtered through two layers of cheesecloth and the filtrate was capable of passing through a 26-gauge needle; 50 ul of the filtrate was administered to each mouse paw.
The filtrate contained 1.57 mg/ml of protein and its PLA2 activity was 12.8% hydrolysis of 10 nmols of E.coli phospholipid/10 ul filtrate/30 min. incubation at 37° C. Therefore, each mouse paw received 78.5 ug NP filtrate. This sample of 78,500 ng total protein contained approximately 4.3 ng NP PLA2 protein. By comparison, we use 500-2000 ng of highly purified PLA2 to induce edema in this mouse model; and under these experimental conditions the maximal edema achieved is 160% of the contralateral paw minus 4-7% edema due to saline injection alone.
The data are expressed as percent of contralateral paw and as percent of maximal edema achieved with purified PLA2. Fifty ul (78.5 ug) was injected into the paw 30 min. after the mice were treated with PX-13 in HEPES administered IP or by gavage at 30 or 60 mg/kg. After 3 hrs,the paws were excised and weighed.

[4] = peroxidation (malondialdehyde formation) of homogenized rat bowel
Method: as §1, with “of transplantation. Upon transplantation, the bowel is immediately injured as evidenced by tissue darkening within two minutes. […] Both PX-13 and mepacrine inhibit the peroxidation (malondialdehyde formation) of homogenized rat bowel, an indication that the membrane-stabilizing, PLA2-inhibitors, also have anti-oxidant activity.” for “of transplantation.”

pancreatin = assay: degradation in vitro by pancreatin; assay type: in vitro ADME; conditions: commercial pancreatic enzyme preparation (Sigma)
Description: The compounds of the present invention are not generally hydrolyzed by pancreatic enzymes and are different from glycerol-based compounds in terms of their chemistry and metabolism. […] The resistance of PX-13 and PX-18 to metabolism by pancreatic enzymes supports their stability after oral administration.

[5] = target: T1, purified human disc type II, PLA2 (Homo sapiens, UniProt P14555); assay: inhibition of purified human disc type II PLA2; assay type: biochemical
T1 construct: the purified human disc type II, PLA2; from tissue; host or cells: human vertebral (herniated) disc
Method: Both PX-13 and PX-18 inhibit the purified human disc type II, PLA2. PLA2 activity was measured as described in Franson et al., Prostaglandins, Leukotrienes and Essential Fatty Acids, 43:63-70, 1991, which is herein incorporated by reference in its entirety.

T1 sequence (P14555 21-144): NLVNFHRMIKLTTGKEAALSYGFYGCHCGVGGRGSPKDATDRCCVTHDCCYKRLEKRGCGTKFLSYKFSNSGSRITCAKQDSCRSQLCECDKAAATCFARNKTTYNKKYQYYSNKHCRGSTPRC

SMILES: CCCCCCCC/C=C\CCCCCCCC(=O)OCC(COC(=O)CCCCCCC/C=C\CCCCCCCC)(COC(=O)CCCCCCC/C=C\CCCCCCCC)NCCS(=O)(=O)O [PX-13, 2-[Tris(oleoyloxymethyl)methylamino]-1-ethanesulfonic acid]
- reduction of PLA2 enzyme release (ischemic bowel): more than 80%
- gross and microscopic injury to tissue (small bowel graft; 40 uM in UW media 48 hrs, with or without 20 mg/kg IV at transplantation): dramatically reduced
- bowel color after transplantation (small bowel graft; rat, in vivo): maintained normal bowel color
- protection against ischemia and reperfusion injury (small bowel graft; small bowel transplantation): protect
- Ultrasound Density Score (outer skin layers; Subject 1, 7 = Best, 1 = Baseline): 1
- Ultrasound Density Score (outer skin layers; Subject 2): 2
- Ultrasound Density Score (outer skin layers; Subject 3): −1
- Ultrasound Density Score Total (outer skin layers; Total of 3 subjects, 7 = Best, 1 = Baseline): 2
- moisturization properties (outer skin layers; in vivo): not good moisturizers
- IC50 (clone D6 (P. falciparum)): 17 µg/mL (≈ 16.6 µM)
- weight of the tissues after storage [1]: reduced weight
- IC50 (clone W2 (P.falciparum)): 13 µg/mL (≈ 12.7 µM)
- protection against toxicity of purified snake venom PLA2 [2]: protected
- Percent Edema ([3]; Gavage 30 mg/kg): 122 ± 5.6%
- Percent Edema ([3]; Gavage 60 mg/kg): 118 ± 2.0%
- Percent of Maximal ([3]; Gavage 60 mg/kg): 22%
- Percent Inhibition ([3]; Gavage 60 mg/kg, 60 mg/kg): 36%
- Percent Inhibition ([3]; IP 30 mg/kg): 24%
- Percent of Maximal ([3]; IP 30 mg/kg, maximal edema with purified PLA2 = 54%): 26%
- Percent Edema ([3]; IP 30 mg/kg, percent of contralateral paw, 3 hrs): 120 ± 2.0%
- Percent Edema ([3]; IP 60 mg/kg): 115 ± 1.6%
- Percent of Maximal ([3]; IP 60 mg/kg): 17%
- Percent Inhibition ([3]; IP 60 mg/kg, 60 mg/kg): 50%
- peroxidation (malondialdehyde formation) [4]: inhibit
- degradation in vitro by pancreatin (pancreatin): resistant to degradation
- pIC50 [5]: 5.60
